Laboratory results taken from patent US8101768B2, “Cyclic amine compound and pest control agent” (Nippon Soda Co., Ltd., priority 2004, dated 2012).

Key:
[1] = test system: organophosphorous agent resistant two-spotted spider mites; experiment: Effect on Two-spotted Spider Mite (spray on kidney bean leaves); assay type: in vivo; details: 125 ppm, water dispersible powder of Formulation Example 1 sprayed, 17 female adults, 25° C., 65% humidity, 3 days
How it was run: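 Kidney bean first leaves bearing 17 adult female organophosphate-resistant mites were sprayed with a water-dispersible powder formulation at 125 ppm. Held 3 days at 25 °C, 65% humidity, then adult mortality scored; run in duplicate.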

[2] = test system: acaricide resistant citrus red mites; experiment: Effect on Citrus Red Mite (spray on mandarin orange leaves); assay type: in vivo; details: 31 ppm, emulsifiable concentrate of Formulation Example 2 sprayed, 10 female adults, 25° C., 65% humidity
Procedure: Effect on Citrus Red Mite
10 female adults of acaricide resistant citrus red mites were inoculated onto leaves of a mandarin orange placed on dishes, onto which each of liquid agents, diluted with water so as to adjust the respective concentration of the chemical compounds to 31 ppm according to the formulation of the emulsifiable concentrate shown in the aforementioned Formulation Example 2, was sprayed by using a rotating sparge tower. After they were left in a thermostatic chamber at 25° C. in 65% humidity for 3 days, and were then removed from the dishes, eggs laid for 3 days were investigated whether they could grow to adults or not on the eleventh day. As the results, the following chemical compounds killed 100% of the adults. 1-13, 1-15, 1-22, 1-27, 1-45, 1-54, 1-59, 1-63, 1-66, 1-69, 1-71, 1-72, 1-75, 1-80, 1-88, 1-89, 1-92, 1-93, 1-94, 1-97, 1-98, 1-100, 1-102, 1-105, 1-108, 1-133, 1-136, 1-142, 1-153, 1-181, 1-183, 1-186, 1-187, 1-188, 1-189, 1-190, 1-191,

[3] = test system: army worms; experiment: Effect on Army Worm (artificial feed test); assay type: in vivo; details: 10 μg of compound on 0.2 ml artificial feed, second instar, 25° C., 5 days
Procedure: Test feeds were prepared by filling plastic test tubes (capacity of 1.4 ml) with 0.2 ml of a commercial artificial feed (Insecta LFS, manufactured by Nosan Corporation). Each of 1% chemical compound solutions was prepared by using DMSO (containing 0.5% tween 20), which was then dropped into the surface of the feed in amount of 10 μg of the respective chemical compounds. 2 army worms, each of which was in the second instar, were inoculated into each of the test tubes, which were then sealed by their plastic caps. After they were left at 25° C. for 5 days, the rate of killed army worms and their feed consumptions were investigated. The test was repeated twice. […] 1-8, 1-9, 1-13, 1-15, 1-17, 1-22, 1-23, 1-27, 1-39, 1-45, 1-46, 1-59, 1-69, 1-72, 1-74, 1-75, 1-79, 1-80, 1-83, 1-95, 1-97, 1-981-100, 1-105, 1-108, 1-114, 1-133, 1-140, 1-147, 1-153, 1-165, 1-166, 1-181, 1-182, 1-183, 1-184, 1-187, 1-189, 1-190,

| SMILES | rate of killed adults [1] | killed ... of the adults (eggs laid for 3 days investigated whether they could grow to adults on the eleventh day) [2] | killed 100% of the army worms, or inhibited their feed consumptions, in comparison with a solvent control area, to 10% or less (effective) [3] | melting point |
| --- | --- | --- | --- | --- |
| FC(F)(F)c1ccc(N2CCC(Oc3ccc(C(F)(F)F)cc3C(F)(F)F)CC2)nc1 [1-80] | 100% | 100% | effective |  |
| FC(F)(F)c1ccc(N2CCC(Oc3ccc(Cl)c(C(F)(F)F)c3)CC2)nc1 [1-15, 4-[4-chloro-3-(trifluoromethyl)phenoxy]-1-[5-(trifluoromethyl)-2-pyridyl]-piperidine] | 100% | 100% | effective |  |
| COCOCc1cc(C(F)(F)F)ccc1OC1CCN(c2ccc(C(F)(F)F)cn2)CC1C (mixture of isomers) [1-183] | 100% | 100% | effective |  |
| CCCOc1cc(C(F)(F)F)ccc1O[C@H]1CCN(c2ccc(C(F)(F)F)cn2)C[C@H]1C (relative stereo) [1-97, cis-3-methyl-4-[2-propoxy-4-(triphloromethyl)phenoxy]-1-[5-(trifluoromethyl)-2-pyridyl]piperidine] | 100% | 100% | effective |  |
| FC(F)(F)c1ccc(N2CCC(Oc3ccc(C(F)(F)F)cc3C3OCCO3)CC2)nc1 [1-181] | 100% | 100% | effective |  |
| FC(F)(F)Oc1ccc(OC2CCN(c3ccc(C(F)(F)F)cn3)CC2)cc1 [1-133] | 100% | 100% | effective |  |
| FC(F)(F)c1ccc(OC2CCN(c3ccc(C(F)(F)F)cn3)CC2)cc1 [1-75] | 100% | 100% | effective |  |
| CCCc1cc(C(F)(F)F)ccc1OC1CCN(c2ccc(C(F)(F)F)cn2)CC1 [1-59] | 100% | 100% | effective |  |
| FC(F)(F)c1ccc(N2CCC(Oc3ccc(C(F)(F)F)cc3I)CC2)nc1 [1-27] | 100% | 100% | effective |  |
| Cc1noc(-c2cc(C(F)(F)F)ccc2OC2CCN(c3ccc(C(F)(F)F)cn3)CC2)n1 [1-190] | 100% | 100% | effective |  |
| FC(F)(F)c1ccc(N2CCC(Oc3ccc(C(F)(F)F)cc3OCC3CC3)CC2)nc1 [1-108] | 100% | 100% | effective |  |
| FC(F)(F)c1ccc(N2CCC(Oc3ccc(C(F)(F)F)cc3Br)CC2)nc1 [1-22] | 100% | 100% | effective |  |
| O=S(=O)(Oc1ccc(OC2CCN(c3ccc(C(F)(F)F)cn3)CC2)cc1)C(F)(F)F [1-153] | 100% | 100% | effective |  |
| FC(F)(F)c1ccc(N2CCC(Oc3ccc(C(F)(F)F)cc3Cl)CC2)nc1 [1-13] | 100% | 100% | effective |  |
| COC(C)OCc1cc(C(F)(F)F)ccc1OC1CCN(c2ccc(C(F)(F)F)cn2)CC1C (stereo not shown) [1-189] | 100% | 100% | effective |  |
| COC(C)OCc1cc(C(F)(F)F)ccc1OC1CCN(c2ccc(C(F)(F)F)cn2)CC1 (stereo not shown) [1-72] | 100% | 100% | effective |  |
| CC(=O)Oc1cc(C(F)(F)F)ccc1OC1CCN(c2ccc(C(F)(F)F)cn2)CC1 [1-167, 4-[2-acetoxy-4-(trifluoromethyl)phenoxy]-1-[5-(trifluoromethyl)-2-pyridyl]piperidine] |  |  |  | 85 to 95 °C |
| CCCOc1cc(C(F)(F)F)ccc1OC1CCN(c2ccc(C(F)(F)F)cn2)CC1CC (stereo not shown) [1-187] | 100% | 100% | effective |  |
| Cc1cc(C(F)(F)F)ccc1OC1CCN(c2ccc(C(F)(F)F)cn2)CC1 [1-45] | 100% | 100% | effective |  |
| COCOCc1cc(C(F)(F)F)ccc1OC1CCN(c2ccc(C(F)(F)F)cn2)CC1 [1-69] | 100% | 100% | effective |  |
| CCCOCc1cc(C(F)(F)F)ccc1OC1CCN(c2ccc(C(F)(F)F)cn2)CC1 [1-182] | 100% |  | effective |  |
| Cc1cc(OC(F)(F)F)ccc1OC1CCN(c2ccc(C(F)(F)F)cn2)CC1 [1-46] | 100% |  | effective |  |
| Fc1cc(C(F)(F)F)ccc1OC1CCN(c2ccc(C(F)(F)F)cn2)CC1 [1-8] | 100% |  | effective |  |
| COCOc1cc(C(F)(F)F)ccc1OC1CCN(c2ccc(C(F)(F)F)cn2)CC1 [1-105, 4-[2-methoxymethoxy-4-(trifluoromethyl)-phenoxy]-1-[5-(trifluoromethyl)-2-pyridyl]piperidine] | 100% | 100% | effective |  |
